# Where a name gives a salt, the structure may show the parent alone. Read-outs that look alike come from different tables or passages of the source.
# How the values were obtained:
# Human Thrombocytes = assay: Fibrinogen binding to human thrombocytes (fibrinogen binding test)
# Description: 1. Fibrinogen Binding to Human Thrombocytes The blood obtained by puncturing an antecubital vein is anticoagulated with trisodium citrate (final concentration: 13 mM) and centrifuged for 10 minutes at 170× g. The supernatant platelet-rich plasma is poured onto a Sepharose 2B column (Pharmacia) and eluted with a solution of 90 mM common salt, 14 mM trisodium citrate, 5 mM glucose and 50 mM tris(hydroxymethyl)aminomethane, adjusted to pH 7.4. The gel-filtered platelets (GFP) appearing before the plasma proteins are used for the binding experiments. 50 μl of a 60 mM calcium chloride solution, 50 μl of a 0.6 mM adenosine diphosphate solution, 100 μl of substance solution or solvent and 50 μl of fibrinogen solution (containing 3 μg of ^125 fibrinogen) are added to 750 μl of GFP and incubated for 20 minutes at ambient temperature. The non-specific binding is determined in the presence of 3 mg/ml of cold fibrinogen. 900 μl of the incubated material are carefully pipetted onto 250 μl of silicon oil (AP 38: AR 20, 1:2 v/v, Wacker Chemie) in Eppendorf tubes and centrifuged for 2 minutes at 10,000× g. The aqueous supernatant and some of the oil are drawn off, the tips of the tubes are cut off together with the platelet pellet and the quantity of bound fibrinogen is determined in a gamma counter. The concentration of substance which brings about a 50% inhibition in fibrinogen binding is determined from a series of concentrations and is given as the IC50 value. | *^125 I fibrogen was replaced by […] |e.
# [1] = system: platelet aggregation (platelet-rich plasma); assay: Antithrombotic activity: inhibition of collagen-induced platelet aggregation in platelet-rich plasma (Born and Cross); assay type: cell-based, human (healthy volunteers); details: 50% change in optical density, human platelet-rich plasma, 10 min preincubation
# Description: 2. Antithrombotic Activity Method The thrombocyte aggregation is measured using the Born and Cross method (J. Physiol. 170:397 (1964)) in platelet-rich plasma taken from healthy volunteers. To inhibit coagulation the blood is mixed with 3.14% sodium citrate in a ratio by volume of 1:10. Collagen-induced aggregation The pattern of the decrease in optical density of the platelet suspension is photometrically measured and recorded after the addition of aggregation-triggering substance. The rate of aggregation is concluded from the angle of inclination of the density curve. The point on the curve where there is maximum light transmittance is used to calculate the optical density. The amount of collagen used is as small as possible but sufficient to produce an irreversible reaction curve. Standard commercial collagen produced by Hormonchemie of Munich is used. Before the addition of the collagen the plasma is incubated for 10 minutes with the substance at […]. From the measurements obtained an EC50 is determined graphically, indicating a 50% change in the optical density in terms of the inhibition of aggregation.
# [2] = 125I fibrinogen, 50% inhibition of fibrinogen binding, gel-filtered human platelets, ADP, 20 min ambient temperature, read-out: Fibrinogen binding test IC50
# [3] = *: 125I fibrinogen replaced by 3H-(3S,5S)-5-[(amidino-biphenylyl)-oxymethyl]-carboxymethyl-pyrrolidinone ligand, read-out: Fibrinogen binding test IC50 (values marked *)
SMILES,IC50 (Human Thrombocytes; [2]),EC50 [1],IC50 (Human Thrombocytes; [3])
"N=C(N)c1ccc(-c2nc3cc(NC(=O)CCC(=O)O)ccc3[nH]2)cc1 [1(1), 2-(4-amidino-phenyl)-5(6)-[(2-carboxy-ethyl)-carbonyl-amino]-benzimidazole]",600 nM,6600 nM,
"N=C(N)c1ccc(-c2nc3cc(C(=O)NCCC(=O)O)ccc3n2Cc2ccccc2)cc1 [1(62), 2-(4-amidino-phenyl)-1-benzyl-5-[(2-carboxy-ethyl)-aminocarbonyl]-benzimidazole-hydrochloride]",,,38 nM
"N=C(N)c1ccc(-c2nc3cc(C(=O)NCCC(=O)O)ccc3n2CCCN)cc1 [1(76), 2-(4-amidino-phenyl)-1-(3-amino-propyl)-5-[(2-carboxy-ethyl)-aminocarbonyl]-benzimidazole-diacetate]",,1150 nM,
"Cn1c(-c2ccc(C(=N)N)cc2)[n+]([O-])c2cc(C(=O)NCCC(=O)O)ccc21 [1(79), 2-(4-amidino-phenyl)-5-[(2-carboxy-ethyl)-aminocarbonyl]-1-methyl-benzimidazole-3-oxide]",41 nM,80 nM,
"N=C(N)c1ccc(OCc2nc3cc(OCC(=O)O)ccc3[nH]2)cc1 [1(135), 2-[(4-amidino-phenyl)-oxymethyl]-5(6)-carboxymethoxy-benzimidazole]",800 nM,7600 nM,
"N=C(N)c1ccc(-c2nc3cc(C(=O)NCCC(=O)O)ccc3n2CCN2CCN(Cc3ccccc3)CC2)cc1 [1(136), 2-(4-amidino-phenyl)-1-[2-(4-benzyl-piperazino)-ethyl]-5-[(2-carboxy-ethyl)-aminocarbonyl]-benzimidazole]",30 nM,80 nM,
"NCc1ccc(-c2nc3cc(C(=O)NCCC(=O)O)ccc3n2CCCN2CCSCC2)cc1 [1(137), 2-(4-aminomethyl-phenyl)-5-[(2-carboxy-ethyl)-aminocarbonyl]-1-(3-thiomorpholino-propyl)-benzimidazole]",,7000 nM,1800 nM
"N=C(N)c1ccc(-c2nc3cc(C(=O)NCCC(=O)O)ccc3n2CCCC(=O)O)cc1 [1(138), 2-(4-amidino-phenyl)-5-[(2-carboxy-ethyl)-aminocarbonyl]-1-(3-carboxy-propyl)-benzimidazole]",,3600 nM,1500 nM
"COC(=O)CCNC(=O)c1ccc2c(c1)nc(-c1ccc(C(=N)N)cc1)n2Cc1cccnc1 [3(52), 2-(4-amidino-phenyl)-5-[(2-methoxycarbonyl-ethyl)-aminocarbonyl]-1-(3-pyridylmethyl)-benzimidazole]",,9500 nM,4800 nM
"COC(=O)CCCn1c(-c2ccc(C(=N)N)cc2)nc2cc(C(=O)NCCC(=O)OC)ccc21 [3(120), 2-(4-amidino-phenyl)-5-[(2-methoxycarbonyl-ethyl)-aminocarbonyl]-1-(3-methoxycarbonyl-propyl)-benzimidazole-hydrochloride]",,2000 nM,1300 nM
"COC(=O)CCNC(=O)c1ccc2c(c1)nc(-c1ccc(C(=N)N)cc1)n2CCCC(=O)O [3(121), 2-(4-amidino-phenyl)-1-(3-carboxy-propyl)-5-[(2-methoxycarbonyl-ethyl)-aminocarbonyl]-benzimidazole]",,13000 nM,15000 nM
"COC(=O)CCNC(=O)c1ccc2c(c1)nc(-c1ccc(C(=N)N)cc1)n2CCCCc1ccccc1 [3(122), 2-(4-amidino-phenyl)-5-[(2-methoxycarbonyl-ethyl)-aminocarbonyl]-1-(4-phenyl-butyl)-benzimidazole]",,8600 nM,4000 nM
"CNc1cc2c(cc1C(=O)NCCC(=O)OC)nc(-c1ccc(C(=N)N)cc1)n2C [3(123), 2-(4-amidino-phenyl)-5-[(2-methoxycarbonyl-ethyl)-aminocarbonyl]-1-methyl-6-methylamino-benzimidazole-hydrochloride-hydrogen acetate]",,12000 nM,25000 nM

# Next, values leading:
IC50 (Human Thrombocytes; [2]),EC50 [1],IC50 (Human Thrombocytes; [3]),SMILES
,3300 nM,720 nM,"N=C(N)c1ccc(-c2nc3cc(C(=O)NCCC(=O)O)ccc3[nH]2)cc1 [1(2), 2-(4-amidino-phenyl)-5(6)-[(2-carboxy-ethyl)-aminocarbonyl]-benzimidazole-hydrochloride]"
,160 nM,49 nM,"N=C(N)c1ccc(-c2nc3cc(C(=O)NCCC(=O)O)ccc3n2CCCN2CCSCC2)cc1 [1(73), 2-(4-amidino-phenyl)-5-[(2-carboxy-ethyl)-aminocarbonyl]-1-(3-thiomorpholino-propyl)-benzimidazole]"
,310 nM,120 nM,"N=C(N)c1ccc(-c2nc3cc(C(=O)NCCC(=O)O)ccc3n2CCCN2CC[S+]([O-])CC2)cc1 [1(74), 2-(4-amidino-phenyl)-5-[(2-carboxy-ethyl)-aminocarbonyl]-1-[3-(S-oxido-thiomorpholino)-propyl]-benzimidazole]"
,1100 nM,230 nM,"N=C(N)c1ccc(-c2nc3cc(C(=O)NCCC(=O)O)ccc3n2CCCN2CCS(=O)(=O)CC2)cc1 [1(75), 2-(4-amidino-phenyl)-5-[(2-carboxy-ethyl)-aminocarbonyl]-1-[3-(S,S-dioxido-thiomorpholino)-propyl]-benzimidazole]"
,1500 nM,410 nM,"CNc1cc2c(cc1C(=O)NCCC(=O)O)nc(-c1ccc(C(=N)N)cc1)n2C [1(139), 2-(4-amidino-phenyl)-5-[(2-carboxy-ethyl)-aminocarbonyl]-1-methyl-6-methylamino-benzimidazole]"
,750 nM,220 nM,"CN(CC(=O)O)c1cc2c(cc1C(=O)NCCC(=O)O)nc(-c1ccc(C(=N)N)cc1)n2C [1(140), 2-(4-amidino-phenyl)-5-[(2-carboxy-ethyl)-aminocarbonyl]-6-(N-carboxymethyl-methylamino)-1-methyl-benzimidazole]"
,70 nM,7.5 nM,"Cn1c(-c2ccc(C(=N)N)cc2)nc2c(=O)n(CCCCC(=O)O)c(=O)n(C)c21 [1(160), 8-(4-amidino-phenyl)-1-(4-carboxy-butyl)-3,9-dimethyl-xanthine]"
,330 nM,280 nM,"COC(=O)CCNC(=O)c1cnc2c(c1)nc(-c1ccc(C(=N)N)cc1)n2C [3(19), 2-(4-amidino-phenyl)-6-[(2-methoxycarbonyl-ethyl)-aminocarbonyl]-3-methyl-imidazo[4,5-b]pyridine]"
,6400 nM,7000 nM,"COC(=O)CCNC(=O)c1ccc2c(c1)nc(-c1ccc(C(=N)N)cc1)n2Cc1ccccc1 [3(48), 2-(4-amidino-phenyl)-1-benzyl-5-[(2-methoxycarbonyl-ethyl)-aminocarbonyl]-benzimidazole-hydrochloride]"
,3800 nM,2000 nM,"COC(=O)CCNC(=O)c1ccc2c(c1)nc(-c1ccc(C(=N)N)cc1)n2CCCN1CCSCC1 [3(59), 2-(4-amidino-phenyl)-5-[(2-methoxycarbonyl-ethyl)-aminocarbonyl]-1-(3-thiomorpholino-propyl)-benzimidazole]"
,39000 nM,4600 nM,"CCCCCCCCCCCCCCn1c(-c2ccc(C(=N)N)cc2)nc2cc(C(=O)NCCC(=O)OC)ccc21 [3(119), 2-(4-amidino-phenyl)-5-[(2-methoxycarbonyl-ethyl)-aminocarbonyl]-1-n-tetradecyl-benzimidazole]"
,1200 nM,,"COC(=O)COc1ccc2[nH]c(COc3ccc(C(=N)N)cc3)nc2c1 [Example 3, 2-[(4-Amidino-phenyl)-oxymethyl]-5(6)-methoxycarbonyl-methoxy-benzimidazole-hydrochloride]"
